Data: ChEMBL document CHEMBL1800064, “Biaryl ethers as potent allosteric inhibitors of reverse transcriptase and its key mutant viruses: aryl substituted pyrazole as a surrogate for the pyrazolopyridine motif” (Bioorg Med Chem Lett, 2010)

Assays:
[1] = molecular target: Human immunodeficiency virus type 1 reverse transcriptase (Human immunodeficiency virus 1, UniProt Q72547, Y181C); assay: Inhibition of HIV1 reverse transcriptase Y181C mutant by SPA assay
[2] = system: Human immunodeficiency virus 1; assay: Ratio IC50 for HIV1 isolate NL4-3 harboring reverse transcriptase Y181C mutant to IC50 for HIV1 isolate NL4-3 harboring wild type reverse transcriptase by phenoscreen assay in presence of 40% normal human serum; type: functional
[3] = system: Human immunodeficiency virus 1; assay: Ratio IC50 for HIV1 isolate NL4-3 harboring reverse transcriptase V106A/G190A/F227L mutant to IC50 for HIV1 isolate NL4-3 harboring wild type reverse transcriptase by phenoscreen assay in presence of 40% normal human serum; type: functional
[4] = system: Human immunodeficiency virus 1; assay: Antiviral activity against HIV1 isolate NL4-3 harboring reverse transcriptase K103N/V179E double mutant assessed as inhibition of viral replication by phenoscreen assay in presence of 40% normal human serum; type: functional, organism-based; settings: Human immunodeficiency virus 1, isolate NL4-3
[5] = system: Human immunodeficiency virus 1; assay: Ratio IC50 for HIV1 isolate NL4-3 harboring reverse transcriptase K103N/Y181C/G190A mutant to IC50 for HIV1 isolate NL4-3 harboring wild type reverse transcriptase by phenoscreen assay in presence of 40% normal human serum; type: functional
[6] = system: Human immunodeficiency virus 1; assay: Antiviral activity against HIV1 R8 harboring reverse transcriptase K103N mutant infected in human MT4 cells assessed as inhibition of viral spread in presence of 10% fetal bovine serum; type: functional; settings: Human immunodeficiency virus 1, R8, MT4; read-out: CIC95
[7] = system: Human immunodeficiency virus 1; assay: Antiviral activity against HIV1 R8 harboring wild type reverse transcriptase infected in human MT4 cells assessed as inhibition of viral spread in presence of 10% fetal bovine serum; type: functional; settings: Human immunodeficiency virus 1, R8, MT4; read-out: CIC95
[8] = system: Human immunodeficiency virus 1; assay: Antiviral activity against HIV1 isolate NL4-3 harboring reverse transcriptase Y181C/G190A double mutant assessed as inhibition of viral replication by phenoscreen assay in presence of 40% normal human serum; type: functional, organism-based; settings: Human immunodeficiency virus 1, isolate NL4-3
[9] = system: Human immunodeficiency virus 1; assay: Antiviral activity against HIV1 isolate NL4-3 harboring reverse transcriptase K103N mutant assessed as inhibition of viral replication by phenoscreen assay in presence of 40% normal human serum; type: functional, organism-based; settings: Human immunodeficiency virus 1, isolate NL4-3
[10] = system: Human immunodeficiency virus 1; assay: Antiviral activity against HIV1 R8 harboring reverse transcriptase Y181C mutant infected in human MT4 cells assessed as inhibition of viral spread in presence of 10% fetal bovine serum; type: functional; settings: Human immunodeficiency virus 1, R8, MT4; read-out: CIC95
[11] = system: Human immunodeficiency virus 1; assay: Antiviral activity against HIV1 isolate NL4-3 harboring reverse transcriptase K103N/Y181C double mutant assessed as inhibition of viral replication by phenoscreen assay in presence of 40% normal human serum; type: functional, organism-based; settings: Human immunodeficiency virus 1, isolate NL4-3
[12] = molecular target: Human immunodeficiency virus type 1 reverse transcriptase (Human immunodeficiency virus 1, UniProt Q72547, K103N); assay: Inhibition of HIV1 reverse transcriptase K103N mutant by SPA assay
[13] = system: Human immunodeficiency virus 1; assay: Antiviral activity against HIV1 isolate NL4-3 harboring reverse transcriptase V106A/G190A/F227L mutant assessed as inhibition of viral replication by phenoscreen assay in presence of 40% normal human serum; type: functional, organism-based; settings: Human immunodeficiency virus 1, isolate NL4-3
[14] = system: Human immunodeficiency virus 1; assay: Ratio IC50 for HIV1 isolate NL4-3 harboring reverse transcriptase K103N/Y181C double mutant to IC50 for HIV1 isolate NL4-3 harboring wild type reverse transcriptase by phenoscreen assay in presence of 40% normal human serum; type: functional
[15] = system: Human immunodeficiency virus 1; assay: Ratio IC50 for HIV1 isolate NL4-3 harboring reverse transcriptase K101E/Y181C/G190A mutant to IC50 for HIV1 isolate NL4-3 harboring wild type reverse transcriptase by phenoscreen assay in presence of 40% normal human serum; type: functional
[16] = system: Human immunodeficiency virus 1; assay: Antiviral activity against HIV1 isolate NL4-3 harboring reverse transcriptase L100I mutant assessed as inhibition of viral replication by phenoscreen assay in presence of 40% normal human serum; type: functional, organism-based; settings: Human immunodeficiency virus 1, isolate NL4-3
[17] = system: Human immunodeficiency virus 1; assay: Ratio IC50 for HIV1 isolate NL4-3 harboring reverse transcriptase G190S mutant to IC50 for HIV1 isolate NL4-3 harboring wild type reverse transcriptase by phenoscreen assay in presence of 40% normal human serum; type: functional
[18] = system: Human immunodeficiency virus 1; assay: Ratio IC50 for HIV1 isolate NL4-3 harboring reverse transcriptase Y188L mutant to IC50 for HIV1 isolate NL4-3 harboring wild type reverse transcriptase by phenoscreen assay in presence of 40% normal human serum; type: functional
[19] = system: Human immunodeficiency virus 1; assay: Ratio IC50 for HIV1 isolate NL4-3 harboring reverse transcriptase K103N mutant to IC50 for HIV1 isolate NL4-3 harboring wild type reverse transcriptase by phenoscreen assay in presence of 40% normal human serum; type: functional
[20] = system: Human immunodeficiency virus 1; assay: Antiviral activity against HIV1 isolate NL4-3 harboring reverse transcriptase G190A mutant assessed as inhibition of viral replication by phenoscreen assay in presence of 40% normal human serum; type: functional, organism-based; settings: Human immunodeficiency virus 1, isolate NL4-3
[21] = system: Human immunodeficiency virus 1; assay: Antiviral activity against HIV1 R8 harboring reverse transcriptase infected in human MT4 cells assessed as inhibition of viral spread in presence of 50% normal human serum; type: functional; settings: Human immunodeficiency virus 1, R8, MT4; read-out: CIC95
[22] = system: Human immunodeficiency virus 1; assay: Antiviral activity against HIV1 isolate NL4-3 harboring reverse transcriptase K101E/G190A double mutant assessed as inhibition of viral replication by phenoscreen assay in presence of 40% normal human serum; type: functional, organism-based; settings: Human immunodeficiency virus 1, isolate NL4-3
[23] = system: Human immunodeficiency virus 1; assay: Ratio IC50 for HIV1 isolate NL4-3 harboring reverse transcriptase K103N/G190A double mutant to IC50 for wild type HIV1 isolate NL4-3 harboring reverse transcriptase by phenoscreen assay in presence of 40% normal human serum; type: functional
[24] = system: Human immunodeficiency virus 1; assay: Antiviral activity against HIV1 isolate NL4-3 harboring reverse transcriptase K103N/G190A double mutant assessed as inhibition of viral replication by phenoscreen assay in presence of 40% normal human serum; type: functional, organism-based; settings: Human immunodeficiency virus 1, isolate NL4-3
[25] = system: Human immunodeficiency virus 1; assay: Antiviral activity against HIV1 isolate NL4-3 harboring reverse transcriptase K103N/Y181C/G190A mutant assessed as inhibition of viral replication by phenoscreen assay in presence of 40% normal human serum; type: functional, organism-based; settings: Human immunodeficiency virus 1, isolate NL4-3
[26] = system: Human immunodeficiency virus 1; assay: Antiviral activity against HIV1 isolate NL4-3 harboring reverse transcriptase Y181C mutant assessed as inhibition of viral replication by phenoscreen assay in presence of 40% normal human serum; type: functional, organism-based; settings: Human immunodeficiency virus 1, isolate NL4-3
[27] = system: Human immunodeficiency virus 1; assay: Antiviral activity against HIV1 isolate NL4-3 harboring wild type reverse transcriptase assessed as inhibition of viral replication by phenoscreen assay in presence of 40% normal human serum; type: functional, organism-based; settings: Human immunodeficiency virus 1, isolate NL4-3
[28] = system: Human immunodeficiency virus 1; assay: Antiviral activity against HIV1 isolate NL4-3 harboring reverse transcriptase G190S mutant assessed as inhibition of viral replication by phenoscreen assay in presence of 40% normal human serum; type: functional, organism-based; settings: Human immunodeficiency virus 1, isolate NL4-3
[29] = molecular target: Human immunodeficiency virus type 1 reverse transcriptase (Human immunodeficiency virus 1, UniProt Q72547); assay: Inhibition of wild type HIV1 reverse transcriptase by SPA assay
[30] = system: Human immunodeficiency virus 1; assay: Ratio IC50 for HIV1 isolate NL4-3 harboring reverse transcriptase G190A mutant to IC50 for HIV1 isolate NL4-3 harboring wild type reverse transcriptase by phenoscreen assay in presence of 40% normal human serum; type: functional
[31] = system: Human immunodeficiency virus 1; assay: Antiviral activity against HIV1 isolate NL4-3 harboring reverse transcriptase K103N/P225H double mutant assessed as inhibition of viral replication by phenoscreen assay in presence of 40% normal human serum; type: functional, organism-based; settings: Human immunodeficiency virus 1, isolate NL4-3
[32] = system: Human immunodeficiency virus 1; assay: Ratio IC50 for HIV1 isolate NL4-3 harboring reverse transcriptase Y181C/G190A double mutant to IC50 for HIV1 isolate NL4-3 harboring wild type reverse transcriptase by phenoscreen assay in presence of 40% normal human serum; type: functional
[33] = system: Human immunodeficiency virus 1; assay: Ratio IC50 for HIV1 isolate NL4-3 harboring reverse transcriptase K103N/V179E double mutant to IC50 for HIV1 isolate NL4-3 harboring wild type reverse transcriptase by phenoscreen assay in presence of 40% normal human serum; type: functional
[34] = system: Human immunodeficiency virus 1; assay: Ratio IC50 for HIV1 isolate NL4-3 harboring reverse transcriptase K103N/P225H double mutant to IC50 for HIV1 isolate NL4-3 harboring wild type reverse transcriptase by phenoscreen assay in presence of 40% normal human serum; type: functional
[35] = system: Human immunodeficiency virus 1; assay: Antiviral activity against HIV1 isolate NL4-3 harboring reverse transcriptase Y188L mutant assessed as inhibition of viral replication by phenoscreen assay in presence of 40% normal human serum; type: functional, organism-based; settings: Human immunodeficiency virus 1, isolate NL4-3
[36] = system: Human immunodeficiency virus 1; assay: Ratio IC50 for HIV1 isolate NL4-3 harboring reverse transcriptase K101E/G190A double mutant to IC50 for HIV1 isolate NL4-3 harboring wild type reverse transcriptase by phenoscreen assay in presence of 40% normal human serum; type: functional
[37] = system: Human immunodeficiency virus 1; assay: Antiviral activity against HIV1 isolate NL4-3 harboring reverse transcriptase K101E/Y181C/G190A mutant assessed as inhibition of viral replication by phenoscreen assay in presence of 40% normal human serum; type: functional, organism-based; settings: Human immunodeficiency virus 1, isolate NL4-3
[38] = system: Human immunodeficiency virus 1; assay: Ratio IC50 for HIV1 isolate NL4-3 harboring reverse transcriptase L100I mutant to IC50 for HIV1 isolate NL4-3 harboring wild type reverse transcriptase by phenoscreen assay in presence of 40% normal human serum; type: functional

**Q.** Which Ki [1] does the source give for `N#Cc1cc(Cl)cc(Oc2cc(OCc3cc(-c4ccncc4)[nH]n3)ccc2Cl)c1` here?
**A.** 4.6 nM

**Q.** And the “Ratio IC50” value [2]?
**A.** 8

**Q.** And the “Ratio IC50” value [3]?
**A.** >222

**Q.** What about the IC50 [4] of the same compound?
**A.** 90.2 nM

**Q.** And the “Ratio IC50” value [5]?
**A.** >222

**Q.** What about the IC95 [6] of the same compound?
**A.** 102 nM

**Q.** And the IC95 [7]?
**A.** 25 nM

**Q.** And the IC50 [8]?
**A.** 131 nM

**Q.** What about the IC50 [9] of the same compound?
**A.** 19.7 nM

**Q.** What about the IC95 [10] of the same compound?
**A.** 278 nM

**Q.** What about the IC50 [11] of the same compound?
**A.** > 1000 nM

**Q.** What about the Ki [12] of the same compound?
**A.** 4.2 nM

**Q.** What about the IC50 [13] of the same compound?
**A.** > 1000 nM

**Q.** What about the “Ratio IC50” value [14] of the same compound?
**A.** >222

**Q.** And the “Ratio IC50” value [15]?
**A.** 73.7

**Q.** And the IC50 [16]?
**A.** 21.9 nM

**Q.** What about the “Ratio IC50” value [17] of the same compound?
**A.** 35.7

**Q.** What about the “Ratio IC50” value [18] of the same compound?
**A.** >222

**Q.** What about the “Ratio IC50” value [19] of the same compound?
**A.** 4.4

**Q.** And the IC50 [20]?
**A.** 22.3 nM

**Q.** And the IC95 [21]?
**A.** 102 nM

**Q.** And the IC50 [22]?
**A.** 118 nM

**Q.** And the “Ratio IC50” value [23]?
**A.** 26.6

**Q.** What about the IC50 [24] of the same compound?
**A.** 120 nM

**Q.** What about the IC50 [25] of the same compound?
**A.** > 1000 nM

**Q.** And the IC50 [26]?
**A.** 36.2 nM

**Q.** And the IC50 [27]?
**A.** 4.5 nM

**Q.** And the IC50 [28]?
**A.** 161 nM

**Q.** What about the Ki [29] of the same compound?
**A.** 0.7 nM

**Q.** And the “Ratio IC50” value [30]?
**A.** 5

**Q.** What about the IC50 [31] of the same compound?
**A.** 32.4 nM

**Q.** What about the “Ratio IC50” value [32] of the same compound?
**A.** 29.1

**Q.** What about the “Ratio IC50” value [33] of the same compound?
**A.** 20

**Q.** And the “Ratio IC50” value [34]?
**A.** 7.2

**Q.** And the IC50 [35]?
**A.** > 1000 nM

**Q.** What about the “Ratio IC50” value [36] of the same compound?
**A.** 26.2

**Q.** What about the IC50 [37] of the same compound?
**A.** 332 nM

**Q.** And the “Ratio IC50” value [38]?
**A.** 4.9
